Tests used:
[1] = molecular target: T1, Sheep seminal vesicle (SSV) cyclooxygenase (Ovis aries, UniProt P05979); experiment: Procedure I: inhibition of sheep seminal vesicle (SSV) cyclooxygenase; format: biochemical; details: SSV cyclooxygenase; read-out: Proc. I IC50
T1 construct: Sheep seminal vesicle (SSV) cyclooxygenase (95% pure); purchased Biomol (Plymouth Meeting, PA); host or cells: sheep seminal vesicle
T1 sequence (P05979 25-600): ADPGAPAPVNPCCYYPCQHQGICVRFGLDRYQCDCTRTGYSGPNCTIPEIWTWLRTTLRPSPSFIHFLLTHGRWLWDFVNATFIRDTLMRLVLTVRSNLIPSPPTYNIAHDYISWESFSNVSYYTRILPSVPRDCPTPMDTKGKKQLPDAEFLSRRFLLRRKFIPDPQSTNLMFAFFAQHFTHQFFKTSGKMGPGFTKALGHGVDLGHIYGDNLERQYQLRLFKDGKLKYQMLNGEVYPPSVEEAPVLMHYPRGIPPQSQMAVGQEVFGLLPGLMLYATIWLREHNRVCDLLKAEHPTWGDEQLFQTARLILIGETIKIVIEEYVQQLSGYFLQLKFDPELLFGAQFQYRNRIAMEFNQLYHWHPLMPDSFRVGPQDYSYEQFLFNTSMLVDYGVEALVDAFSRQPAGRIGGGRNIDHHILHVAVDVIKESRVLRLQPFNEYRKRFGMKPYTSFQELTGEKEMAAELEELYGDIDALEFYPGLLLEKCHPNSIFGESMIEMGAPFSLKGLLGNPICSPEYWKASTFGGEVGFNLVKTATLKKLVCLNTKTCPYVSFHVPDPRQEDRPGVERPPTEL
Procedure, shortened: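 Turnover of [1-14C]-arachidonic acid by SSV cyclooxygenase ran 20 min after a 5 min preincubation at 37° C with test compound. Products (PGD2, PGE2, etc.) were extracted, resolved by TLC and quantified by radio-imaging; inhibition came from comparing curve areas with and without compound.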

[2] = molecular target: T2, 5-LO (Rattus norvegicus, UniProt P12527); experiment: Procedure III: 5-LO (5-HETE) in intact RBL-1 cells; format: cell-based; details: calcium ionophore A 23187, read-out: Proc. III 5-LO IC50
T2 construct: the supernatant was saved as the source of enzymes; endogenous in cells; host or cells: RBL-1 (rat basophilic leukemia) cells
T2 sequence (P12527 1-673): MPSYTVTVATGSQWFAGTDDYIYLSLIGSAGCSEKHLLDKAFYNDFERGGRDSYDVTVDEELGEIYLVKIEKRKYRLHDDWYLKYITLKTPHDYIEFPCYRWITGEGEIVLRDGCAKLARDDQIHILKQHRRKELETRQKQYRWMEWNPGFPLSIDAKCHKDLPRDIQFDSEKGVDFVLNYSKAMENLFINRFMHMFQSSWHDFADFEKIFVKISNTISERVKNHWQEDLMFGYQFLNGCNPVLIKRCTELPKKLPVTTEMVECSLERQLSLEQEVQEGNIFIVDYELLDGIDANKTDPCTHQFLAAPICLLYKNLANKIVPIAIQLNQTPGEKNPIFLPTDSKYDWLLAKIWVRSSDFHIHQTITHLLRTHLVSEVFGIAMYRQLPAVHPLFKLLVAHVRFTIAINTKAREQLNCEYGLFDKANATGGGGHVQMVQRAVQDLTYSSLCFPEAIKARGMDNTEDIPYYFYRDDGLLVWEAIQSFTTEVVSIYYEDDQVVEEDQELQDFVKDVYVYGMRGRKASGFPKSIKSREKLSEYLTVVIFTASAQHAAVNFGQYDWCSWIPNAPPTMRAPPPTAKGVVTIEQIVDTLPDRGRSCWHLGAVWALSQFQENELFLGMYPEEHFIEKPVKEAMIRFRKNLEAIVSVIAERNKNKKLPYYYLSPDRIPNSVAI
Procedure, shortened: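 Intact RBL-1 cells at 1×10^5 cells/mL in HBSS were preincubated with vehicle or drug, pelleted and resuspended, then given 1-^14C-AA. 5-HETE (5-LO) and PgD2 (CO) were separated by TLC after acidification/extraction and quantified by radioimaging; IC50 from regression curve fit.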

[3] = molecular target: T2, 5-LO; experiment: Procedure II: 5-LO activity (5-HETE) in broken RBL-1 cells (homogenate supernatant); format: biochemical; details: RBL-1 broken cell supernatant; read-out: Proc. II 5-LO IC50
Procedure, shortened: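 Supernatant from rat RBL-1 homogenate (9,220×g) was pre-incubated 5 min at 37 °C with 2 mM CaCl2 and compound or 1% DMSO, then with 1-^14C-arachidonic acid for 20 min at 37 °C.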

## COc1ccc(-n2nc(C#CCN(O)C(N)=O)cc2-c2ccc(C)cc2)cc1 [Cpd 1, N-Hydroxy-N-(1(1-(4-methoxyphenyl)-5-(4-methylphenyl)pyrazol-3-yl)-1-propyn-3-yl)urea]
[1]
  IC50: 1.02 µM
[2]
  IC50: 4.7 µM
[3]
  IC50: 0.07 µM

— US5925769A, “Acetylenic 1,5-diarylpyrazoles as antiinflammatory agents” (Ortho Pharmaceutical, Corp., priority 1998, dated 1999)
